Measured values reported in article PMC4685510, “A Cell Biologist’s Field Guide to Aurora Kinase Inhibitors” (Frontiers in Oncology, 2015).

How the values were obtained:
Experiment in all cases: biochemical
Format in all cases: biochemical
[1] = molecular target: T1, 363 human kinases (including Aurora A/B/C) (Homo sapiens, UniProt Q8NG66); settings: NEK11; for remaining activity at 0.1 µM: 100 nM; for remaining activity at 0.1 µM / remaining activity at 0.5 µM: read-out: % Enzyme Activity (relative to DMSO controls)
T1 sequence (Q8NG66 1-645): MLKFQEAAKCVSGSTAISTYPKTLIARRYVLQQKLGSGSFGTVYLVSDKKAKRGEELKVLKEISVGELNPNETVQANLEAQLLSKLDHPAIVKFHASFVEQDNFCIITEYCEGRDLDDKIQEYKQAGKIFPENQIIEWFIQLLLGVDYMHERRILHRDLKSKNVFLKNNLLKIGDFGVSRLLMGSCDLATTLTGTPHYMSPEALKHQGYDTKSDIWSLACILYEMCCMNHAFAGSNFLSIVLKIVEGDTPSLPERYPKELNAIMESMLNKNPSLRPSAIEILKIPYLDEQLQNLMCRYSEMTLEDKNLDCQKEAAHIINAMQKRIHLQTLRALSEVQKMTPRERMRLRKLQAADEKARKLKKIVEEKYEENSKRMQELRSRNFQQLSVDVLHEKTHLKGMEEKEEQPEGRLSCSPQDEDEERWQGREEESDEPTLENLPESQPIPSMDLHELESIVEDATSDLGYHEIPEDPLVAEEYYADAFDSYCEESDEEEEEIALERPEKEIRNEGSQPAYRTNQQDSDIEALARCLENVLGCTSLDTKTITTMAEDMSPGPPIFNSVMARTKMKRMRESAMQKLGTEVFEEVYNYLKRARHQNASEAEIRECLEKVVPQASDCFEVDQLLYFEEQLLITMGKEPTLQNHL
Text: (§1) However, the Aurora A/B selectivity ratios derived from our in vitro and in vivo data can be compared to prioritize inhibitors.

[2] = molecular target: 363 human kinases (including Aurora A/B/C) (Homo sapiens, UniProt Q13554); settings: CAMK2b, [ATP] 100 µM; for remaining activity at 0.1 µM: 100 nM; for remaining activity at 0.1 µM / remaining activity at 0.5 µM: read-out: % Enzyme Activity (relative to DMSO controls)
363 human kinases (including Aurora A/B/C) (Homo sapiens, UniProt Q13554), sequence (Q13554 whole entry): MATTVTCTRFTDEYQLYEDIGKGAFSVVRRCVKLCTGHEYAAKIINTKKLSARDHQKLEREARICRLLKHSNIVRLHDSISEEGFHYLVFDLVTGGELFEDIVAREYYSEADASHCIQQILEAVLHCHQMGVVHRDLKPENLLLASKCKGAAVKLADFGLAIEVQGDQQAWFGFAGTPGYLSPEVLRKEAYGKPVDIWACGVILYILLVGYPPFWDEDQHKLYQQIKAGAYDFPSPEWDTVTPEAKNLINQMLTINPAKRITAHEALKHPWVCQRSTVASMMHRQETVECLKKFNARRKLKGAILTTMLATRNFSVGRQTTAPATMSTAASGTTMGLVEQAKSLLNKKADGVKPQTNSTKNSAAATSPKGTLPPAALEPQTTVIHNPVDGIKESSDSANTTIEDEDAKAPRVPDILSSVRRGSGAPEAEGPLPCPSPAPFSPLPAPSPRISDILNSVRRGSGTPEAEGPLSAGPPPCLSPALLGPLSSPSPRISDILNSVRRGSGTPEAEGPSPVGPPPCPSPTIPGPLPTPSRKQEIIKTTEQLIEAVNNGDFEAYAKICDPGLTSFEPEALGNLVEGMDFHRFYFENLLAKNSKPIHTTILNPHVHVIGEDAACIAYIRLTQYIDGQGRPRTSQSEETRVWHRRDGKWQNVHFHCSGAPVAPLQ
Text: as §1

[3] = molecular target: T2, 363 human kinases (including Aurora A/B/C) (Homo sapiens, UniProt Q9H093); settings: SNARK/NUAK2; for remaining activity at 0.1 µM: 100 nM; for remaining activity at 0.1 µM / remaining activity at 0.5 µM: read-out: % Enzyme Activity (relative to DMSO controls)
T2 sequence (Q9H093 1-628): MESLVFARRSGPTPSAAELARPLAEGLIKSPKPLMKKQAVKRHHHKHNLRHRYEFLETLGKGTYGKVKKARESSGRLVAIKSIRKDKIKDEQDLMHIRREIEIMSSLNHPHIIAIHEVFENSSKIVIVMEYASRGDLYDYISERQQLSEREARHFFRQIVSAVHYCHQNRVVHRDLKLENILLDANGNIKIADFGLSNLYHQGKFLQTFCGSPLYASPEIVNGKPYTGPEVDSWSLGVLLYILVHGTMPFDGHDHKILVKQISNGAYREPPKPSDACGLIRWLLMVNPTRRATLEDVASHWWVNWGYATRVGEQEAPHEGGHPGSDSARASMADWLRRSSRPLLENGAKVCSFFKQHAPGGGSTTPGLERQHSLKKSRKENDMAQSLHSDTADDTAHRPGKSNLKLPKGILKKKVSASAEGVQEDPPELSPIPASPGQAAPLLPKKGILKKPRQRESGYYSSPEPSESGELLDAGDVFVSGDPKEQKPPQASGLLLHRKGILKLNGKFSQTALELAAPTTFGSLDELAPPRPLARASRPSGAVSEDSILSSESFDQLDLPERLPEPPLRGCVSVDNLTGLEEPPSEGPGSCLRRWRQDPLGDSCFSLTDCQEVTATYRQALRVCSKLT
Text: as §1

[4] = molecular target: 363 human kinases (including Aurora A/B/C) (Homo sapiens, UniProt P04626); settings: ERBB2/HER2, [ATP] 20 µM; for remaining activity at 0.1 µM: 100 nM; for remaining activity at 0.1 µM / remaining activity at 0.5 µM: read-out: % Enzyme Activity (relative to DMSO controls)
363 human kinases (including Aurora A/B/C) (Homo sapiens, UniProt P04626), sequence (P04626 23-1255): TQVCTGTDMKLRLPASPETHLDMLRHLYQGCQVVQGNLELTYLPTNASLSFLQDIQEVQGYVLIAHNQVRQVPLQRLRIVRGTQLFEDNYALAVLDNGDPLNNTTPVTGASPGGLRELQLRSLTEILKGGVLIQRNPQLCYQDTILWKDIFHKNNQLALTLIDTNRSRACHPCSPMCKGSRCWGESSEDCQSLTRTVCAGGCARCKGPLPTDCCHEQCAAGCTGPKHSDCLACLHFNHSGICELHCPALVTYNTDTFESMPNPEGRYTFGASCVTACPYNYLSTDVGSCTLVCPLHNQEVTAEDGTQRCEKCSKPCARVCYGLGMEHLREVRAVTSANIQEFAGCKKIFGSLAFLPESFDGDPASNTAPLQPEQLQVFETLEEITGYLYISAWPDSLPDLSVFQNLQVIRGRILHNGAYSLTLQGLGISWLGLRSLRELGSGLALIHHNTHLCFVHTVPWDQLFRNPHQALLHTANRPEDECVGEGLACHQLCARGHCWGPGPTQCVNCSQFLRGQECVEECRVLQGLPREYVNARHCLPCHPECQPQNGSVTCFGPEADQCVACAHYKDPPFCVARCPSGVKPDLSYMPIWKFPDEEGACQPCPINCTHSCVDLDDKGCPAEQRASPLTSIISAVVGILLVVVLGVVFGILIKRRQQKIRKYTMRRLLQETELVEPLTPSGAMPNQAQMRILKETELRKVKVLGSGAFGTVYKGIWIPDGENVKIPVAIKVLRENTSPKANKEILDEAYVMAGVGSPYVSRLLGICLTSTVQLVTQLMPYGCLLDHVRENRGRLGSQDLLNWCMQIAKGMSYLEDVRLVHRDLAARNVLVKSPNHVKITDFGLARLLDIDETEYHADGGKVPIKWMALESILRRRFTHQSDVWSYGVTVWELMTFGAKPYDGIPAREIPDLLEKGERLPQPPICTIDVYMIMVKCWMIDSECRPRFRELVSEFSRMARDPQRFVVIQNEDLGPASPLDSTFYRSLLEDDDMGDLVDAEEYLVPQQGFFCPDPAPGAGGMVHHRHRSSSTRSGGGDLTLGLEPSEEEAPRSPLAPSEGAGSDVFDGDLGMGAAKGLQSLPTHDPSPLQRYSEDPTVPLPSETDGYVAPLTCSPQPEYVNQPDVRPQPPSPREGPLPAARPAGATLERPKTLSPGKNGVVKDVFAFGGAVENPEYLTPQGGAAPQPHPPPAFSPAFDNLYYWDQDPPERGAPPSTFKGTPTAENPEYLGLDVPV
Text: as §1

[5] = molecular target: T3, 363 human kinases (including Aurora A/B/C) (Homo sapiens, UniProt P51817); settings: PRKX; for remaining activity at 0.1 µM: 100 nM; for remaining activity at 0.1 µM / remaining activity at 0.5 µM: read-out: % Enzyme Activity (relative to DMSO controls)
T3 sequence (P51817 1-358): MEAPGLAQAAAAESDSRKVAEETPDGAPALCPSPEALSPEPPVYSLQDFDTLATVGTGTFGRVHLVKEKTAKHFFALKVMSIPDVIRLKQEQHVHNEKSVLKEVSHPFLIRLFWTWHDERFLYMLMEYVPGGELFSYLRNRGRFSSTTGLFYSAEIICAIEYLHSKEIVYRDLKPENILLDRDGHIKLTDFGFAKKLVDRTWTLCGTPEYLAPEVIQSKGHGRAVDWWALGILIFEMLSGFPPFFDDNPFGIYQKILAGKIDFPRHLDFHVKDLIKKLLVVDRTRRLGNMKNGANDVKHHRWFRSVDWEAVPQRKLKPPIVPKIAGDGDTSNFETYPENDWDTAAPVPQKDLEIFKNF
Text: as §1

[6] = molecular target: T4, 363 human kinases (including Aurora A/B/C) (Homo sapiens, UniProt P54753); settings: EPHB3, [ATP] 50 µM; for remaining activity at 0.1 µM: 100 nM; for remaining activity at 0.1 µM / remaining activity at 0.5 µM: read-out: % Enzyme Activity (relative to DMSO controls)
T4 sequence (P54753 34-998): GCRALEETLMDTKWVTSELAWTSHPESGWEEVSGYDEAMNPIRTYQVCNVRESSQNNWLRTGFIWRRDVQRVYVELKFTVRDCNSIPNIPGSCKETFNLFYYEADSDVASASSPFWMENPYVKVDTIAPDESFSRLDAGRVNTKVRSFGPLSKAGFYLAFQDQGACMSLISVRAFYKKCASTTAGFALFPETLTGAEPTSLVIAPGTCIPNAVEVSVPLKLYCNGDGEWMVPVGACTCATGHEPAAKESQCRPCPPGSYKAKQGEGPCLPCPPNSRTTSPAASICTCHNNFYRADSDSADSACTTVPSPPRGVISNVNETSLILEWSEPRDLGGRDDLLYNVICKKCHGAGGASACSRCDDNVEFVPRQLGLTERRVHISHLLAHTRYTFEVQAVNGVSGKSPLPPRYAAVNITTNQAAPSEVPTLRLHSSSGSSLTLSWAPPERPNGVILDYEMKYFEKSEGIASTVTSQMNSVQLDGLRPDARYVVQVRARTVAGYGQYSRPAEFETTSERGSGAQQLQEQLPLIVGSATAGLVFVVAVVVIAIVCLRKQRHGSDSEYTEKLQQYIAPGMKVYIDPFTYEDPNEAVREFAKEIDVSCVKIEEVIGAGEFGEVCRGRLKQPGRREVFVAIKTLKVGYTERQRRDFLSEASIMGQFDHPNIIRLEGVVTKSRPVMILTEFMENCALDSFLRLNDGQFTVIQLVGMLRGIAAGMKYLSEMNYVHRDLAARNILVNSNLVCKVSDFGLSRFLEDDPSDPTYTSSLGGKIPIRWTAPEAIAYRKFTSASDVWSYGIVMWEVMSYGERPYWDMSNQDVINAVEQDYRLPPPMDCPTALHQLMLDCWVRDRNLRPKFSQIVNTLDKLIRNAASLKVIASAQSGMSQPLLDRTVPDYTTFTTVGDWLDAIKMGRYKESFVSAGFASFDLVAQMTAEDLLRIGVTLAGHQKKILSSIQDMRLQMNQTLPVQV
Text: as §1

| Structure (SMILES) | remaining activity at 0.1 µM [1] [%] | remaining activity at 0.1 µM [2] [%] | remaining activity at 0.1 µM [3] [%] | remaining activity at 0.1 µM [4] [%] | remaining activity at 0.1 µM [5] [%] | remaining activity at 0.1 µM [6] [%] | remaining activity at 0.5 µM ([1]; 500 nM) [%] | remaining activity at 0.5 µM ([2]; 500 nM) [%] | remaining activity at 0.5 µM ([3]; 500 nM) [%] | remaining activity at 0.5 µM ([4]; 500 nM) [%] | remaining activity at 0.5 µM ([5]; 500 nM) [%] | remaining activity at 0.5 µM ([6]; 500 nM) [%] | % Enzyme Activity (relative to DMSO controls) ([1]; 500 nM) [%] | % Enzyme Activity (relative to DMSO controls) ([2]; 500 nM) [%] | % Enzyme Activity (relative to DMSO controls) ([3]; 500 nM) [%] | % Enzyme Activity (relative to DMSO controls) ([4]; 500 nM) [%] | % Enzyme Activity (relative to DMSO controls) ([5]; 500 nM) [%] | % Enzyme Activity (relative to DMSO controls) ([6]; 500 nM) [%] |
| --- | --- | --- | --- | --- | --- | --- | --- | --- | --- | --- | --- | --- | --- | --- | --- | --- | --- | --- |
| CCn1cc(-c2ccnc3[nH]c(-c4cccc(CN(C)C)c4)cc23)c(-c2ccc(NC(=O)N(C)C)cc2)n1 [GSK1070916] | 77.7 | 101 | 88.7 | 103 | 92.6 | 94.5 |  |  |  |  |  |  |  |  |  |  |  |  |
| O=C(O)[C@]1(Cc2cccc(Nc3nccs3)n2)CC[C@@H](Oc2cccc(Cl)c2F)CC1 [MK-5108] | 86.5 | 95.5 | 104 | 100 | 99.8 | 102 | 73.9 | 97.8 | 70.8 | 111 | 97.6 | 89.5 |  |  |  |  |  |  |
| O=C(c1cccc(Cl)c1F)N1CCN(Cc2cccc(Nc3nccs3)n2)CC1 [MK-8745] |  |  |  |  |  |  | 76.6 | 101 | 88.1 | 99.8 | 96.5 | 93 | 75.49 | 99.72 | 85.75 | 99.40 | 95.41 | 92.59 |
